Data on one molecule can be found in patent publication US20040087539A1, “Method of treating conditions related to platelet activity” (priority 2003, published 2004).

For assay [1], the system named is CHO cells expressing human platelet receptors. Put plainly: Cell adhesion to immobilized vWF under flow. Format: cell-based, Chinese Hamster. The settings on record: FIG. 2C; sildenafil 5 μM, RGDS 4 mM; 8-bromo-cGMP not shown. As to the method:
CHO cells expressing human platelet receptors were resuspended in modified Tyrode's buffer, pH 7.4, containing 1 mg/mi of bovine serum albumin (BSA) (see Ref. 46), and final cell count was 5×10^5/ml. […] Purified human vWF (10 μg/ml in 0.1 M NaHCO3, pH 8.3) was added to glass microcapillary tubes (inner diameter of 1.33 mm and a length of 7.2 cm), and incubated at 4° C. for 20 h. The vWF-coated microcapillary tubes then were incubated with 5% BSA. After washing, the cell suspension was aspirated through the tube by a syringe pump (Harvard Apparatus Inc.) at desired shear rates for 1.2 minutes and washed with modified Tyrode's buffer for additional 10 minutes at the same shear rates to remove transiently adherent cells. The experiments were continuously recorded on videotape using a video cassette recorder (model 9500, Sony). The number of stably adherent cell on immobilized vWF was counted on images obtained at 20 randomly selected positions in the vWF-coated tubes.
In FIGS. 2A and B, vWF-coated capillary tubes were perfused with equivalent numbers (5×10^5/ml) of CHO cells expressing recombinant GPLb-JX alone (1b9), integrin αIIbβ3 alone (2b3a), both GPIb-IX and integrin αIIbβ3 (123) or expressing GPJb-JX, integrin α^IIbβ3 and PKG Ia (123PKG) at a shear rates of 800 s^−1 (A) or 1500 s^−1 (B) for 1.2 minutes, and then perfused with the modified Tyrodes buffer for 10 minutes at the same shear rates to wash out transient adherent cells. The expenments were recorded in real time. Cells stably adherent to vWF-coated capillary tubes at 20 randomly selected locations were counted.
In FIG. 2C, vector-transfected 123 cells (123) or 123PKG cells also was perfused into vWF-coated glass capillary tubes as described in FIG. 2A in the absence or presence (+RGDS) of an integrin inhibitor RGDS peptide (4 mM) and in the absence (Control) or presence of cGMP-enhancing drug, sildenafil (5 μM). […] The experiments were repeated at least three times.

For assay [2], the system named is platelets. Put plainly: Ristocetin-induced vWF-dependent platelet aggregation in platelet-rich plasma. Format: cell-based, human. As to the method: (§1) Fresh blood from healthy volunteers was anticoagulated with 1/7 volume of ACD (2.5% trisodium citrate, 2% dextrose and 1.5% citric acid). Platelets were washed with CGS buffer (sodium chloride 0.12 M, trisodium citrate 0.0129 M and d-glucose 0.03 M, pH 6.5), resuspended in modified Tyrode's solution and allowed to incubate at 22° C. for 1 hours as previously described. In experiments using platelet-rich plasma (PRP), 1/10 volume of 3.8% trisodium citrate was used as anticoagulant. Platelet aggregation was measured using a turbidometric platelet aggregometer (Chrono-Log) at 37° C. vWF-dependent platelet aggregation was induced by addition of ristocetin or botrocetin to PRP. To differentiate CPIb-IX-mediated platelet agglutination from the second wave of integrin-dependent platelet aggregation, final concentrations of ristocetin were adjusted in each experiment to achieve a two-wave curve of aggregation. Washed platelets were used in platelet aggregation induced by a-thrombin (Enzyme Research Laboratories). To examine the effects of PKG, 100 μM of membrane permeable cGMP analogs, 8-bromo-cGMP or 8-dibutyl-cGMP (Calbiochem), or 1 μM sildenafil citrate (Pfizer) and added simultaneously with subthreshold concentrations of agonists. PKG inhibitors KT5823 (2 pM) and Rp-8PCPT-cGMP (0.2 mM) were preincubated with platelets at 37° C. for 5 minutes before addition of agonists.
In FIG. 3A, platelet rich-plasma (PRP) was preincubated at 37° C. for 5 mm with PKG inhibitors KT5823 (2 pM) or Rp-8pCPT-cGMP (0.2 μM). PRP was also incubated with DMSO (vehicle for KT5823), a PKA inhibitor, KT5720 (2 pM), or buffer (Control). The vWF modulator, ristocetin, was then added to induce vWF-GPIb-IX interaction. […] In FIG. 3B, a subthreshold concentration of ristocetin was added to PRP immediately followed by addition of 8-bromo-cGMP or buffer (Control). PRP also was preincubated with integrin inhibitor RGDS before adding ristocetin and 8-bromo-cGMP. In FIG. 3C, platelets were preincubated with or without PKG inhibitor KT5823, then allowed to spread on vWF-coated glass chamber slides. Platelets were stained with an anti-GPIb antibody, and fluorescein-labeled secondary antibody. The slides were imaged under a confocal microscope (magnification =630×).
(§2) In FIG. 6A, increasing concentrations of sildenafil or control 0.15 M NaCl solution were added to platelet-rich plasma followed by a subthreshold concentration of ristocetin. Platelet aggregation was recorded using a platelet aggregometer. In FIG. 6B, sildenafil or control buffer was added to washed platelets followed by addition of subthreshold doses of thrombin to induce platelet aggregation. It was noted that platelet aggregation occurs in the presence of sildenafil. The figure includes the representative results of at least three experiments.
(§3) In FIG. 7A, PRP was preincubated with 0.1 mM 8-bromo-cGMP for increasing lengths of time at 37° C. as indicated. The vWF modulator, ristocetin (1.25 mg/ml), then was added to induce platelet aggregation in a turbidometric platelet aggregometer. In FIG. 7B, PRP was preincubated with a high concentration of 8-bromo-cGMP (1 mM) for 5 minutes. Ristocetin then was added to induce platelet aggregation. In FIGS. 7C and 7D, washed platelets in modified Tyrode's solution were preincubated with 1 mM 8-bromo-cGMP (C), or various concentrations of 8-pCPT-cGMP (D) at 37° C. for 5 minutes. Thrombin (0.05 u/ml) then was added to induce platelet aggregation.

Assay [3] relates to platelets. Briefly: Low-dose α-thrombin-induced aggregation of washed platelets. Format: cell-based, human. Here is the method:
as §1
In FIG. 5A, washed platelets were preincubated with 40 pg/mi anti-GPIba monoclonal antibody SZ2, integrin inhibitor RGDS, or inhibitors of PKG, KT5823 (2 μM) or Rp-8pCPT-cGMP (0.2 mM) (Calbiochem), for 5 min. Platelets also were preincubated with DMSO (vehicle for KT5823), KT5720 or buffer (Control) as controls. α-Thrombin (0.05 units/mi) then was added to induce platelet aggregation. Nonspecific JgG and RGES peptides also were examined as additional controls, but had no effect (not shown). In FIG. 5B, a subthreshold dose of thrombin was added to platelets immediately followed by addition of PKG activator 8-bromo-cGMP or buffer (Control). Shown in the figure are the representative results of at least three experiments.
as §2, §3

With `Nc1nc2c(nc(Br)n2[C@@H]2O[C@@H]3COP(=O)(O)O[C@H]3[C@H]2O)c(=O)[nH]1` [8-bromo-cGMP], the “stable adhesion of PKG-expressing 123 cells (123PKG) to vWF under flow” value in assay [1] is listed as “enhanced”. Also, in the assay on platelets [2] (1 mM 8-bromo-cGMP, FIGS. 7B, 7C), the “preincubation time required to inhibit platelets” value is reported as “less than 5 minutes”. The “preincubation time after which the inhibitory effect on platelet aggregation becomes significant” value in the assay with platelets [2] (8-bromo-cGMP 100 μM (0.1 mM), PRP, 37° C., ristocetin 1.25 mg/ml, FIG. 7A) was 10 min. Further, in the assay with platelets [2] (8-bromo-cGMP 100 μM, FIG. 7A), the “GPIb-IX-dependent platelet activation, agent added simultaneously with ristocetin” value is “promoted”. In the assay on platelets [2] (PRP, agent added with subthreshold ristocetin (1 mg/mm [sic]) (or botrocetin), FIGS. 3B, 6A), the “platelet aggregation together with a subthreshold concentration of ristocetin” value was “induced integrin-dependent platelet aggregation”. Further, in the assay with platelets [2] (in some experiments, not shown), the “preincubation time required for a slight inhibitory effect” value was found to be 30 min. Further, in the assay with platelets [3] (8-bromo-cGMP 100 μM, FIG. 5), the “GPIb-IX-dependent platelet activation, agent added simultaneously with thrombin” value is on record as “promoted”. In addition, in the assay on platelets [3] (washed platelets, thrombin 0.02 units/ml, FIGS. 5B, 6B), the “platelet aggregation together with a subthreshold concentration of thrombin” value is “induced platelet aggregation”.
